These results are taken from the supplement of paper PMC10307832.

Common to all, as to assay: relative viability (nuclei count vs DMSO), 5 days (fraction); higher = more cells survive
Compound in the assay “Fedratinib + Alpelisib”: Cc1cnc(Nc2ccc(OCCN3CCCC3)cc2)nc1Nc1cccc(S(=O)(=O)NC(C)(C)C)c1 [Fedratinib] + Cc1nc(NC(=O)N2CCC[C@H]2C(N)=O)sc1-c1ccnc(C(C)(C)C(F)(F)F)c1 [Alpelisib] (partner 2 µM)
The method in brief:
(§1)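 Lung cancer cell lines in 1536-well plates got either a single drug or a fixed anchor-drug dose together with five library-drug doses (not always all listed) in √10 steps, by pin tool, on the day after seeding. Nuclei were counted after 5 days, and relative viability is the treated-to-vehicle ratio of nuclei counts. Values are medians of duplicate plates.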

Compound in the assay “GW-2580 + Vorinostat”: COC1=CC=C(C=C1)COC2=C(C=C(C=C2)CC3=CN=C(N=C3N)N)OC [GW-2580] + O=C(CCCCCCC(=O)Nc1ccccc1)NO [Vorinostat] (partner 1 µM)
The method in brief:
as §1

Compound in the assay “Fedratinib + Lapatinib”: Cc1cnc(Nc2ccc(OCCN3CCCC3)cc2)nc1Nc1cccc(S(=O)(=O)NC(C)(C)C)c1 [Fedratinib] + CS(=O)(=O)CCNCc1ccc(-c2ccc3ncnc(Nc4ccc(OCc5cccc(F)c5)c(Cl)c4)c3c2)o1 [Lapatinib] (partner 2 µM)
The method in brief: as §1

Compound in the assay “GW-2580 + AZD7762”: COC1=CC=C(C=C1)COC2=C(C=C(C=C2)CC3=CN=C(N=C3N)N)OC [GW-2580] + NC(=O)Nc1cc(-c2cccc(F)c2)sc1C(=O)N[C@H]1CCCNC1 [AZD7762] (partner 0.2 µM)
The method in brief:
as §1

Compound in the assay “GW-2580 + Decitabine”: COC1=CC=C(C=C1)COC2=C(C=C(C=C2)CC3=CN=C(N=C3N)N)OC [GW-2580] + Nc1ncn([C@H]2C[C@H](O)[C@@H](CO)O2)c(=O)n1 [Decitabine] (partner 2 µM)
The method in brief:
as §1

As for RERF-LC-KJ, the relative viability turned out to be 0.792 with Fedratinib + Alpelisib (first compound 0.1 µM); 0.86 with Fedratinib + Alpelisib (first compound 0.3162 µM); 0.756 with Fedratinib + Alpelisib (first compound 1 µM); 0.663 with GW-2580 + Vorinostat (first compound 0.08 µM); 0.792 in the assay with GW-2580 + Vorinostat (first compound 0.8 µM); 0.629 with GW-2580 + Vorinostat (first compound 2.53 µM). In addition, the relative viability came to 0.684 in the assay with GW-2580 + Vorinostat (first compound 8 µM); 0.879 in the assay with Fedratinib + Lapatinib (first compound 0.1 µM); 0.844 with Fedratinib + Lapatinib (first compound 0.3162 µM); 0.838 with Fedratinib + Lapatinib (first compound 1 µM); 1.11 with GW-2580 + AZD7762 (first compound 0.08 µM); 1.25 with GW-2580 + AZD7762 (first compound 0.8 µM). The relative viability in the assay with GW-2580 + AZD7762 (first compound 2.53 µM) worked out at 0.825; with GW-2580 + AZD7762 (first compound 8 µM), 0.913; with GW-2580 + Decitabine (first compound 0.08 µM), 0.687; in the assay with GW-2580 + Decitabine (first compound 0.8 µM), 0.799; in the assay with GW-2580 + Decitabine (first compound 2.53 µM) it was 0.673; in the assay with GW-2580 + Decitabine (first compound 8 µM) it was 0.658.
